Data taken from patent publication EP2616456B1, “NUCLEAR EXPORT INHIBITORS” (Universitätsmedizin der Johannes Gutenberg-Universität Mainz, priority 2010, dated 2012).
“Also recorded” adds a separate entry of the source.

Legend:
[1] = test system: RevNES-biosensor; experiment: RevNES-biosensor translocation (NES-mediated nuclear export) in living HeLa cells, fluorescence microscopy; type: cell-based; settings: for Cellular localization of green fluorescent RevNES-biosensor: HeLa; for Topt at 25µM: Table 4, fluorescence microscopy; for Mode of Inhibition: reversal of export inhibition after 24h, C5: 5-12h observation
Description: (§1) The activity of compounds C3, C5 and C24 to inhibit NES-mediated nuclear export in living cells was analyzed as described in Fetz et al., 2009 using living HeLa (cervix carcinoma), FaDu (head and neck cancer), MDA-MB231 (mammacarcinoma) and SW480 cells (colon cancer) which transiently expressed the RevNES-biosensor. The RevNES-biosensor is a fusion protein composed of (from N to C terminus) the SV40 large T-antigen nuclear localization signal (NLS), glutathion-S-transferase (GST), green fluorescent protein (GFP) and the nuclear export signal (NES) of the HIV-1 (human immunodeficiency virus) Rev protein (RevNES).
The cells of the control were treated with a corresponding amount of DMSO only. The cellular localization of RevNES-biosensor was monitored by fluorescence microscopy. […] Maximum of cellular accumulation was observed after 1h (C24), after 2h (C3) and after 5h (C5), respectively. […] Thus, the inhibitory activity of C3 and C24 (reversible) but not of C5 (irreversible) was reversed after 24h. Table 1: Cellular localization of green fluorescent RevNES-biosensor
Table 3: Cellular localization of green fluorescent RevNES-biosensor
IC50 value corresponds to compound concentration reducing HeLa cell viability by 50%. Topt is the time point post treatment when maximum nuclear export inhibition was observed by fluorescence microscopy. Table 4: Functional characteristics of nuclear export inhibitors

[2] = test system: RevNES-biosensor; experiment: RevNES-biosensor translocation in living FaDu, MDA-MB231 and SW480 cells, fluorescence microscopy; type: cell-based; settings: at Topt
Description: as §1
Maximum nuclear localization of fluorescence was observed after 2h (C3) and 5h (C5), respectively. Table 2: Cellular localization of green fluorescent RevNES-biosensor

[3] = test system: Survivin; experiment: Nuclear export of Survivin-GFP fusion transiently expressed in HeLa cells; type: cell-based; settings: transient expression, 25µM
Description: The activity of compounds to inhibit the export of the oncologically relevant protein Survivin as well as of the HIV-1 Rev protein was analyzed.
Nuclear export of Survivin is crucial for its tumor promoting cytoprotective activity (Engels et al., 2007; Knauer et al., 2007a; Knauer et al., 2007b).

[4] = test system: HIV-1 Rev protein; experiment: Nuclear export of HIV-1 Rev-GFP in actinomycin D treated HeLa cells; type: cell-based; settings: 25µM
Text: The HIV-1 Rev protein transports unspliced and incompletely spliced viral RNAs from the nucleus into the cytoplasm (Stauber et al., 1995). As such, Rev's export function is crucial for viral replication and AIDS development (Pavlakis and Stauber, 1998; Stauber et al., 1995).

[5] = test system: A431; experiment: Cell viability (CellTiter-Glo) and cell death, A431; type: cell-based; settings: for cell death induced by treatment: A431 (epidermoid carcinoma), 25µM; for viability compared to the control: A431, 100µM, 72h, CellTiter-Glo
Description: (§2) To test the anti-cancer activity of the compounds, several cancer cell lines, currently used as models for different epithelial cancers and leukemias, were treated with the indicated inhibitors. […] Every 24h, the cell culture medium was replaced by fresh compound-containing medium. 72h post treatment, cell were analyzed by adding 100µl CellTiter-Glo® assay reagent (Promega). Luminescence was measured with a LuminoskanAscent device (ThermoScientific). Cells treated with a corresponding amount of DMSO only were use as a control. The luminescence (equals cell viability) of said control was set to 100%.

[6] = test system: RKO; experiment: Cell viability (CellTiter-Glo) and cell death, RKO; type: cell-based; settings: for cell death induced by treatment: RKO (colon cancer), 25µM; for viability compared to the control: RKO, 100µM, 72h, CellTiter-Glo
Description: as §2

[7] = test system: FaDu; experiment: Cell viability (CellTiter-Glo) and cell death, FaDu; type: cell-based; settings: for cell death induced by treatment: FaDu (head and neck cancer), 25µM; for viability compared to the control: FaDu, 100µM, 72h, CellTiter-Glo
Description: as §2

[8] = test system: LS174T; experiment: Cell viability (CellTiter-Glo) and cell death, LS174T; type: cell-based; settings: for cell death induced by treatment: LS174T (colon adenocarcinoma), 25µM; for viability compared to the control: LS174T, 100µM, 72h, CellTiter-Glo
Description: as §2

[9] = test system: K562 (Bcr-Abl^+); experiment: Cell death, K562; type: cell-based; settings: K562 (Bcr-Abl^+) (chronic myeloid leukemia, CML), 25µM
[10] = test system: SUP-B15; experiment: Cell death, SUP-B15; type: cell-based; settings: SUP-B15 (B cell precursor ALL), 25µM
[11] = test system: KASUMI-1; experiment: Cell death, KASUMI-1; type: cell-based; settings: KASUMI-1 (acute myeloid leukemia, AML), 25µM
[12] = test system: HeLa cells; experiment: Apoptosis by immunoblot detection of cleaved Caspase 3 and PARP cleavage in HeLa lysates; type: cell-based; settings: 25µM, lysates 72h post treatment
Text: Lysates of cells treated DMSO only were used as a control.

[13] = test system: K562; experiment: AlamarBlue viability assay, K562, alone and combined with imatinib; type: cell-based, human; settings: K562, 25µM, 72h, single agent
Description: The BCR-ABL^+ human chronic myeloid leukemia (CML) cell line K562 was used to investigate whether combining export inhibitors with chemotherapeutic drugs currently used in the clinics enhances drug-induced cancer cell death.
72h post treatment, cells were analyzed by adding 10µl of AlamarBlue® (Invitrogen). Fluorescence (538/600nm) was measured with a LuminoskanAscent (ThermoScientific). Cells treated with DMSO only were used as a control. The fluorescence measured (equals cell viability) with said control was set to 100%.

[14] = In vivo toxicity in nude mice; settings: male NMRI nu/nu mice, i.p. three times every second day, 200µl 1mM
Description: To investigate whether the nuclear export inhibitors cause toxic effects in vivo, six-week-old male NMRI nu/nu mice were injected three times intraperitoneally (i.p.) every second day with 200µl 1mM C3 or C5 (5 mice each), or with 200µl DMSO only (control, 2 mice).

[15] = test system: HIV-1 (strain NL4-3; CXCR-4 tropic); experiment: HIV-1 replication inhibition assay in infected Tzm-bl cells (RT activity in supernatant); type: cell-based; settings: 25 or 50µM added 24h post infection, read 48h post infection
Description: The HIV-1 Rev protein transports unspliced and inclompletely spliced viral RNAs from the nucleus into the cytoplasm, crucial for viral replication and AIDS development (Pavlakis and Stauber, 1998; Stauber et al., 1995). […] 24h post infection, DMSO only (control) or compounds C3 or C5 (stock solution in DMSO) were added to a final concentration of 25 or 50µM. 24h later (= 48h post infection) the viral particles in the supernatant were quantified by measuring reverse transcriptase (RT) activity in the viral supernatant using the RT-Lenti Kit (Cavidi-Tech; Uppsala, Sweden) (see Fig. 6A).

Row | SMILES | Cellular localization of green fluorescent RevNES-biosensor ([1]; 25µM, T = 0h) | Cellular localization of green fluorescent RevNES-biosensor ([1]; 25µM, T = 24h) | Cellular localization of green fluorescent RevNES-biosensor ([1]; 25µM, at Topt) | Cellular localization of green fluorescent RevNES-biosensor ([1]; 75µM, T = 0h) | Cellular localization of green fluorescent RevNES-biosensor ([1]; 150µM, T = 0h) | Topt at 25µM ([1]; 25µM) | Mode of Inhibition [1] | Cellular localization of green fluorescent RevNES-biosensor ([2]; FaDu, 25µM) | Cellular localization of green fluorescent RevNES-biosensor ([2]; MDA-MB231, 25µM) | Cellular localization of green fluorescent RevNES-biosensor ([2]; SW480, 25µM) | Localization of Survivin-GFP fusion (nuclear export of Survivin) [3] | Localization of HIV-1 Rev-GFP (nuclear export of HIV-1 Rev protein) [4] | cell death induced by treatment [5] | viability compared to the control [5] | cell death induced by treatment [6] | viability compared to the control [6] | cell death induced by treatment [7] | viability compared to the control [7] | cell death induced by treatment [8] | viability compared to the control [8] | further results
1 | NC(=O)c1c(NC(NC(=O)c2ccccc2F)(C(F)(F)F)C(F)(F)F)sc2c1CCCC2 [Compound C3, 2-[[1,1,1,3,3,3-hexafluoro-2-[(2-fluorobenzoyl)amino]propan-2-yl]amino]-4,5,6,7-tetrahydro-1-benzothiophene-3-carboxamide] | cytoplasm | predominantly localized in the cytoplasm | nuclear accumulation; also recorded: nucleus | cytoplasm | cytoplasm | ∼1h | reversible | nuclear accumulation; also recorded: nucleus | nuclear accumulation; also recorded: nucleus | nuclear accumulation; also recorded: nucleus | inhibited; also recorded: accumulated in the nucleus | inhibited; also recorded: restored the nuclear accumulation | cell death | significantly reduced viability | cell death | significantly reduced viability | cell death | significantly reduced viability | cell death | significantly reduced viability | Cellular localization of green fluorescent RevNES-biosensor ([1]; 25µM, T = 1h): nucleus/cytoplasm; Cellular localization of green fluorescent RevNES-biosensor ([1]; 75µM, T = 1h): nucleus; Cellular localization of green fluorescent RevNES-biosensor ([1]; 150µM, T = 1h): nucleus; cell death induced by treatment [9]: cell death; cell death induced by treatment [10]: cell death; cell death induced by treatment [11]: cell death; drug-induced apoptosis (cleaved Caspase 3 and PARP cleavage) [12]: drug-induced apoptosis was shown; cancer cell death (AlamarBlue viability) [13]: caused cancer cell death; other signs of in vivo toxicity [14]: no significant weight loss (see Figure 5) or other signs of in vivo toxicity were observed; weight loss compared to the DMSO control [14]: no significant weight loss; RT-activity in the viral supernatant compared to the control [15]: significantly reduced the RT-activity
2 | O=C(NC1CS(=O)(=O)CC1Cl)c1cccc(C(F)(F)F)c1 (centres unmarked) [Compound C5, N-(4-chloro-1,1-dioxothiolan-3-yl)-3-(trifluoromethyl)benzamide] | cytoplasm | nuclear fluorescence; also recorded: nucleus | nuclear accumulation; also recorded: nucleus | cytoplasm | cytoplasm | 5 to 6 h | irreversible; also recorded: irreversible* | nuclear accumulation; also recorded: nucleus | nuclear accumulation; also recorded: nucleus | nuclear accumulation; also recorded: nucleus | inhibited; also recorded: accumulated in the nucleus | inhibited; also recorded: restored the nuclear accumulation | cell death | significantly reduced viability | cell death | significantly reduced viability | cell death | significantly reduced viability | cell death | significantly reduced viability | Cellular localization of green fluorescent RevNES-biosensor ([1]; 25µM, T = 3h): nucleus/cytoplasm; Cellular localization of green fluorescent RevNES-biosensor ([1]; 75µM, T = 3h): nucleus; Cellular localization of green fluorescent RevNES-biosensor ([1]; 150µM, T = 3h): nucleus; cell death induced by treatment [9]: cell death; cell death induced by treatment [10]: cell death; cell death induced by treatment [11]: cell death; drug-induced apoptosis (cleaved Caspase 3 and PARP cleavage) [12]: drug-induced apoptosis was shown; cancer cell death (AlamarBlue viability) [13]: caused cancer cell death; other signs of in vivo toxicity [14]: no significant weight loss (see Figure 5) or other signs of in vivo toxicity were observed; weight loss compared to the DMSO control [14]: no significant weight loss; RT-activity in the viral supernatant compared to the control [15]: significantly reduced the RT-activity
